Bridge positions count the residues as written; N and C are the ends. Peptide text beside a SMILES is read from it. I, II: the chains in the order shown.

In the experiment the target is Glucagon receptor (Homo sapiens, UniProt P47871). In words: Antagonist activity at human glucagon receptor expressed in BHK21 cells assessed as inhibition of glucagon-induced cAMP elevation by RIA. It is filed as functional, cell-based, BHK-21.
Sequence of Glucagon receptor (P47871 whole entry): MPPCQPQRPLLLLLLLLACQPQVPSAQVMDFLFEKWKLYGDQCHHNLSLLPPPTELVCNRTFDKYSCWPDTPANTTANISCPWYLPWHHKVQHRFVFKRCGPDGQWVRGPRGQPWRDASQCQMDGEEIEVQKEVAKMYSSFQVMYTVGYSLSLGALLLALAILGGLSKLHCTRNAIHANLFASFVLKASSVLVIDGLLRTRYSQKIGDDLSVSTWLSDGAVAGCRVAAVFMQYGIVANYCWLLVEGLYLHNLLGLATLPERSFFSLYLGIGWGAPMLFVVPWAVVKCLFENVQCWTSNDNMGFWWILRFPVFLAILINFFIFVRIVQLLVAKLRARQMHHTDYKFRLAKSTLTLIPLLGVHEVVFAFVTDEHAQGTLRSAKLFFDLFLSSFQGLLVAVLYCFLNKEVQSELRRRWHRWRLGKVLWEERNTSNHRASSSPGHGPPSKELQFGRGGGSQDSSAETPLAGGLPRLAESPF
With `CC1CC(=O)c2c(cc3c(-c4c(O)cc(O)c5c(O)c6c(cc45)OC(C)CC6=O)c(O)cc(O)c3c2O)O1` (stereo not drawn) [CEPHALOCHROMIN], the IC50 (commonly the concentration that inhibits the measured activity by half) stood at 20000 nM. On to `CC[C@H](C)[C@@H]1NC(=O)[C@@H]2CC(=O)NCC(=O)N[C@@H](CC(C)C)C(=O)N3CCC[C@H]3C(=O)N[C@@H](Cc3c[nH]c4ccccc34)C(=O)NCC(=O)N[C@@H](CSSC[C@@H](C(=O)O)NC(=O)[C@H](C)NC(=O)[C@H](Cc3c[nH]c4ccccc34)NC(=O)[C@@H]3CCCN3C(=O)[C@H]([C@@H](C)O)NC(=O)[C@H](CC(N)=O)NC(=O)[C@H](Cc3c[nH]c4ccccc34)NC(=O)CNC(=O)[C@@H]3CCCN3C1=O)C(=O)N1CCC[C@H]1C(=O)N[C@@H](CO)C(=O)N2` (GLPWGCPSDIPGWNTPWAC-OH; disulfide 6-19; lactam N-9), for which the half-inhibitory concentration (IC50) is 440 nM. `CC[C@H](C)[C@@H]1NC(=O)C[C@@H]2NC(=O)[C@H](CO)NC(=O)[C@@H]3CCCN3C(=O)[C@H](CSSC[C@@H](C(=O)OC)NC(=O)[C@H](C)NC(=O)[C@H](Cc3c[nH]c4ccccc34)NC(=O)[C@@H]3CCCN3C(=O)[C@H]([C@@H](C)O)NC(=O)[C@H](CC(N)=O)NC(=O)[C@H](Cc3c[nH]c4ccccc34)NC(=O)CNC(=O)[C@@H]3CCCN3C1=O)NC(=O)CNC(=O)[C@H](Cc1c[nH]c3ccccc13)NC(=O)[C@@H]1CCCN1C(=O)[C@H](CC(C)C)NC(=O)CNC2=O` (I: IPGWNTPWAC-OMe / II: cyclo(CPSDGLPWG); disulfide I:10-II:1; amide I:N-II:4): the half-inhibitory concentration (IC50) turned out to be 320 nM.

Values taken from ChEMBL document CHEMBL1148896, “BI-32169, a bicyclic 19-peptide with strong glucagon receptor antagonist activity from Streptomyces sp” (J Nat Prod, 2004).
